Legend:
Assay type in all cases: biochemical
Human FXIa = Human FXIa (Homo sapiens (Human), UniProt P03951); test: Determination of the % inhibition for FXIa (fluorogenic substrate Z-Gly-Pro-Arg-AFC; 40 μM or IC50)
Protocol: Selected compounds were further screened for inhibitory activity against the related enzyme FXIa. The ability of the compounds of formula (I) to inhibit FXIa may be determined using the following biological assay:
Determination of the % Inhibition for FXIa
(§1) FXIa inhibitory activity in vitro was determined using standard published methods (see e.g. Johansen et al., Int. J. Tiss. Reac. 1986, 8, 185; Shori et al., Biochem. Pharmacol., 1992, 43, 1209; Sturzebecher et al., Biol. Chem. Hoppe-Seyler, 1992, 373, 1025). Human FXIa (Enzyme Research Laboratories) was incubated at 25° C. with the fluorogenic substrate Z-Gly-Pro-Arg-AFC and 40 μM of the test compound (or alternatively at various concentrations of the test compound in order to determine IC50). Residual enzyme activity (initial rate of reaction) was determined by measuring the change in optical absorbance at 410 nm and the IC50 value for the test compound was determined.

Human plasma kallikrein = Human plasma kallikrein (Homo sapiens (Human), UniProt P03952); test: Determination of the IC50 for plasma kallikrein (fluorogenic substrate H-DPro-Phe-Arg-AFC); settings: class symbols A-D, read-out: IC50 (human PKal)
Chain of Human plasma kallikrein (P03952 391-638): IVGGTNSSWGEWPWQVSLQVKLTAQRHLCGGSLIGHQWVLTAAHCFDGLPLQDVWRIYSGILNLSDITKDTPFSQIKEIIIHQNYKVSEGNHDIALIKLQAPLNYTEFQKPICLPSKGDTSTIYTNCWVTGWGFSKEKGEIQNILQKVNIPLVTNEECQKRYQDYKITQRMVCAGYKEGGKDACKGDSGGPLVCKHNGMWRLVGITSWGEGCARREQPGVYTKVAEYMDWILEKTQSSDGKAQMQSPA
Chain of Human plasma kallikrein (P03952 20-390 partner): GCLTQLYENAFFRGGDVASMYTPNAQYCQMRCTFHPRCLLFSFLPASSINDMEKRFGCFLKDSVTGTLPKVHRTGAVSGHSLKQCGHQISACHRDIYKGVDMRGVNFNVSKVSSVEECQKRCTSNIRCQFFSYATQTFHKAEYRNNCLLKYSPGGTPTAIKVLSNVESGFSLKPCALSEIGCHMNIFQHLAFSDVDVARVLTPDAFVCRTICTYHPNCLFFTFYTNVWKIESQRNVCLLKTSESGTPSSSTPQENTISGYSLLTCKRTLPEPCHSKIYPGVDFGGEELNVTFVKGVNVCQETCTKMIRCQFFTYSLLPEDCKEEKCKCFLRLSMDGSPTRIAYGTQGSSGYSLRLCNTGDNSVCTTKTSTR
Protocol: The ability of the compounds of formula (I) to inhibit plasma kallikrein may be determined using the following biological assay:
Determination of the IC50 for Plasma Kallikrein
as §1, with “Plasma kallikrein” for “FXIa”, “plasma kallikrein (Protogen)” for “FXIa (Enzyme Research Laboratories)”, “H-DPro-Phe-Arg-AFC” for “Z-Gly-Pro-Arg-AFC”, “and” for “and 40 μM of the test compound (or alternatively at”, “compound.” for “compound in order to determine IC50).”

Human KLK1 = Human KLK1 (Homo sapiens (Human), UniProt P06870); test: Determination of the IC50 for KLK1 (fluorogenic substrate H-DVal-Leu-Arg-AFC)
Chain of Human KLK1 (P06870 25-262): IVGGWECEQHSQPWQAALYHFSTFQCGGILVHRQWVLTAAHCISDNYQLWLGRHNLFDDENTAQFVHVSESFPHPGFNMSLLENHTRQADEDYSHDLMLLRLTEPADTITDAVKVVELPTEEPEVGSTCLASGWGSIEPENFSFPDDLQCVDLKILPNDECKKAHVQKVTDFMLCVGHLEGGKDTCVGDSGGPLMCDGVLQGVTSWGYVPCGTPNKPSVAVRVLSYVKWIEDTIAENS
Protocol: Selected compounds were further screened for inhibitory activity against the related enzyme KLK1. The ability of the compounds of formula (I) to inhibit KLK1 may be determined using the following biological assay:
Determination of the IC50 for KLK1
as §1, with “KLK1” for “FXIa”, “KLK1 (Callbiochem)” for “FXIa (Enzyme Research Laboratories)”, “H-DVal-Leu-Arg-AFC” for “Z-Gly-Pro-Arg-AFC”, “and” for “and 40 μM of the test compound (or alternatively at”, “compound.” for “compound in order to determine IC50).”

Chain of Human FXIa (P03951 388-625): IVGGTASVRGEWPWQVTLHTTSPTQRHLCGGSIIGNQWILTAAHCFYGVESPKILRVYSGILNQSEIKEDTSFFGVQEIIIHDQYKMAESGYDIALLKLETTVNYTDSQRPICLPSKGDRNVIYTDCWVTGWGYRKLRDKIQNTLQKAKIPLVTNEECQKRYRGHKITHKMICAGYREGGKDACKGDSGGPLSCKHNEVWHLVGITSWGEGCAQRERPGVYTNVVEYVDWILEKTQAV
Chain of Human FXIa (P03951 19-387 partner): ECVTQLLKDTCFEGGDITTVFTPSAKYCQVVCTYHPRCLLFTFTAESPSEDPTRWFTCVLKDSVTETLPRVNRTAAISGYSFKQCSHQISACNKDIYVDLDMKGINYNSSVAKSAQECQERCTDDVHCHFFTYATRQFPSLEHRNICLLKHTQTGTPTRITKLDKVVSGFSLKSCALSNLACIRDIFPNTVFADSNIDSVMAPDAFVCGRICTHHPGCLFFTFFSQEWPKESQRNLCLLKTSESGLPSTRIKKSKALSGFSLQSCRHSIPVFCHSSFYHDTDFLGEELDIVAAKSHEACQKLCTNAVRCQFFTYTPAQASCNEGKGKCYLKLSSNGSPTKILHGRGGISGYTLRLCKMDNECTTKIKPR

Row | Structure (SMILES) | IC50 (Human FXIa) | IC50 (Human plasma kallikrein) | IC50 (Human KLK1)
1 | COCc1nn(Cc2ccc3c(c2)C(=O)N(C)CC3)cc1C(=O)NCc1c(-n2cc(C)nn2)ccc(OC)c1F [Example 73, N-{[2-Fluoro-3-methoxy-6-(4-methyl-1,2,3-triazol-1-yl)phenyl]methyl}-3-(methoxymethyl)-1-[(2-methyl-1-oxo-3,4-dihydroisoquinolin-7-yl)methyl]pyrazole-4-carboxamide] | 11.3 µM | 0.03 to 0.1 µM | > 40 µM
2 | COc1ccc(-n2cc(C)nn2)c(CNC(=O)c2cn(Cc3cc4n(n3)C3(CC3)CN(C)C4)nc2C(F)F)c1F [Example 82] | 18.2 µM | < 0.01 µM | > 40 µM
3 | COCc1nn(Cc2cnc3c(c2)CCN(C)C3)cc1C(=O)NCc1c(-n2cc(C)nn2)ccc(OC)c1F [Example 102, N-{[2-fluoro-3-methoxy-6-(4-methyl-1,2,3-triazol-1-yl)phenyl]methyl}-3-(methoxymethyl)-1-[(7-methyl-6,8-dihydro-5H-1,7-naphthyridin-3-yl)methyl]pyrazole-4-carboxamide] | 34.2 µM | < 0.01 µM | > 40 µM
4 | COCc1nn(Cc2cc(F)cc3c2CCN(C)C3)cc1C(=O)NCc1c(-n2cc(C)nn2)ccc(OC)c1F [Example 103, 1-[(7-fluoro-2-methyl-3,4-dihydro-1H-isoquinolin-5-yl)methyl]-N-{[2-fluoro-3-methoxy-6-(4-methyl-1,2,3-triazol-1-yl)phenyl]methyl}-3-(methoxymethyl)pyrazole-4-carboxamide] | > 40 µM | 0.03 to 0.1 µM | > 40 µM
5 | COCc1nn(Cc2ccc3c(c2Cl)CCN(C)C3)cc1C(=O)NCc1c(-n2cc(C)nn2)ccc(OC)c1F [Example 104, 1-[(5-chloro-2-methyl-3,4-dihydro-1H-isoquinolin-6-yl)methyl]-N-{[2-fluoro-3-methoxy-6-(4-methyl-1,2,3-triazol-1-yl)phenyl]methyl}-3-(methoxymethyl)pyrazole-4-carboxamide] | > 40 µM | 0.03 to 0.1 µM | > 40 µM
6 | COCc1nn(Cc2ccc3c(c2)C(F)(F)CN(C)C3)cc1C(=O)NCc1c(-n2cc(C)nn2)ccc(OC)c1F [Example 105, 1-[(4,4-difluoro-2-methyl-1,3-dihydroisoquinolin-6-yl)methyl]-N-{[2-fluoro-3-methoxy-6-(4-methyl-1,2,3-triazol-1-yl)phenyl]methyl}-3-(methoxymethyl)pyrazole-4-carboxamide] | 30 µM | < 0.01 µM | > 40 µM
7 | COCc1nn(Cc2ccc3c(c2)CN(C)CC3(F)F)cc1C(=O)NCc1c(-n2cc(C)nn2)ccc(OC)c1F [Example 106, 1-[(4,4-difluoro-2-methyl-1,3-dihydroisoquinolin-7-yl)methyl]-N-{[2-fluoro-3-methoxy-6-(4-methyl-1,2,3-triazol-1-yl)phenyl]methyl}-3-(methoxymethyl)pyrazole-4-carboxamide] | 23.1 µM | < 0.01 µM | > 40 µM
8 | COCc1nn(Cc2ccc3c(c2F)CN(C)CC3)cc1C(=O)NCc1c(-n2cc(C)nn2)ccc(OC)c1F [Example 107, 1-[(8-fluoro-2-methyl-3,4-dihydro-1H-isoquinolin-7-yl)methyl]-N-{[2-fluoro-3-methoxy-6-(4-methyl-1,2,3-triazol-1-yl)phenyl]methyl}-3-(methoxymethyl)pyrazole-4-carboxamide] | > 40 µM | < 0.01 µM | > 40 µM
9 | COCc1nn(Cc2ccc3c(c2)CN(C)CCO3)cc1C(=O)NCc1c(-n2cc(C)nn2)ccc(OC)c1F [Example 108, N-{[2-fluoro-3-methoxy-6-(4-methyl-1,2,3-triazol-1-yl)phenyl]methyl}-3-(methoxymethyl)-1-[(4-methyl-3,5-dihydro-2H-1,4-benzoxazepin-7-yl)methyl]pyrazole-4-carboxamide] | > 40 µM | 0.1 to 1 µM | > 40 µM
10 | COCc1nn(Cc2nc3c(s2)CN(C)CC3)cc1C(=O)NCc1c(-n2cc(C)nn2)ccc(OC)c1F [Example 109, N-{[2-fluoro-3-methoxy-6-(4-methyl-1,2,3-triazol-1-yl)phenyl]methyl}-3-(methoxymethyl)-1-({5-methyl-4H,6H,7H-[1,3]thiazolo[5,4-c]pyridin-2-yl}methyl)pyrazole-4-carboxamide] | > 40 µM | 0.1 to 1 µM | > 40 µM
11 | COCc1nn(Cc2ccc3c(c2)CNCCO3)cc1C(=O)NCc1c(-n2cc(C)nn2)ccc(OC)c1F [Example 110, N-{[2-fluoro-3-methoxy-6-(4-methyl-1,2,3-triazol-1-yl)phenyl]methyl}-3-(methoxymethyl)-1-(2,3,4,5-tetrahydro-1,4-benzoxazepin-7-ylmethyl)pyrazole-4-carboxamide] | > 40 µM | 0.1 to 1 µM | > 40 µM
12 | COCc1nn(Cc2ccc3c(c2F)CCN(C)C3)cc1C(=O)NCc1c(-n2cc(C)nn2)ccc(OC)c1F [Example 114, 1-[(5-fluoro-2-methyl-3,4-dihydro-1H-isoquinolin-6-yl)methyl]-N-{[2-fluoro-3-methoxy-6-(4-methyl-1,2,3-triazol-1-yl)phenyl]methyl}-3-(methoxymethyl)pyrazole-4-carboxamide] | > 40 µM | 0.01 to 0.03 µM | > 40 µM
13 | COCc1nn(Cc2cnc3c(c2)CCN(CC(F)F)C3)cc1C(=O)NCc1c(-n2cc(C)nn2)ccc(OC)c1F [Example 115, 1-{[7-(2,2-difluoroethyl)-6,8-dihydro-5H-1,7-naphthyridin-3-yl]methyl}-N-{[2-fluoro-3-methoxy-6-(4-methyl-1,2,3-triazol-1-yl)phenyl]methyl}-3-(methoxymethyl)pyrazole-4-carboxamide] | > 4 µM | 0.01 to 0.03 µM | > 4 µM
14 | COCc1nn(Cc2cc(F)c3c(c2)CCN(C)C3)cc1C(=O)NCc1c(-n2cc(C)nn2)ccc(OC)c1F [Example 116, 1-[(8-fluoro-2-methyl-3,4-dihydro-1H-isoquinolin-6-yl)methyl]-N-{[2-fluoro-3-methoxy-6-(4-methyl-1,2,3-triazol-1-yl)phenyl]methyl}-3-(methoxymethyl)pyrazole-4-carboxamide] | > 4 µM | < 0.01 µM | > 4 µM
15 | COCc1nn(Cc2ccc3c(c2)C2CCCN2CC3)cc1C(=O)NCc1c(-n2cc(C)nn2)ccc(OC)c1F (stereo not drawn) [Example 120, 1-{1H,2H,3H,5H,6H,10bH-pyrrolo[2,1-a]isoquinolin-9-ylmethyl}-N-{[2-fluoro-3-methoxy-6-(4-methyl-1,2,3-triazol-1-yl)phenyl]methyl}-3-(methoxymethyl)pyrazole-4-carboxamide] | > 40 µM | < 0.01 µM | > 40 µM
16 | COCc1nn(Cc2ccc3c(c2)CCN(C)CC3)cc1C(=O)NCc1c(-n2cc(C)nn2)ccc(OC)c1F [Example 121, N-{[2-fluoro-3-methoxy-6-(4-methyl-1,2,3-triazol-1-yl)phenyl]methyl}-3-(methoxymethyl)-1-[(3-methyl-1,2,4,5-tetrahydro-3-benzazepin-7-yl)methyl]pyrazole-4-carboxamide] | > 40 µM | < 0.01 µM | > 40 µM
17 | COCc1nn(Cc2ccc3c(c2)C2CCC3N2C(C)C)cc1C(=O)NCc1c(-n2cc(C)nn2)ccc(OC)c1F (stereo not drawn) [Example 123, N-{[2-fluoro-3-methoxy-6-(4-methyl-1,2,3-triazol-1-yl)phenyl]methyl}-1-({11-isopropyl-11-azatricyclo[6.2.1.0^{2,7}]undeca-2(7),3,5-trien-4-yl}methyl)-3-(methoxymethyl)pyrazole-4-carboxamide] | > 40 µM | 0.03 to 0.1 µM | > 40 µM
18 | COCc1nn(Cc2ccc3c(c2)C(C)(C)N(C)C3)cc1C(=O)NCc1c(-n2cc(C)nn2)ccc(OC)c1F [Example 124, N-{[2-fluoro-3-methoxy-6-(4-methyl-1,2,3-triazol-1-yl)phenyl]methyl}-3-(methoxymethyl)-1-[(2,3,3-trimethyl-1H-isoindol-5-yl)methyl]pyrazole-4-carboxamide] | > 40 µM | 0.03 to 0.1 µM | > 40 µM

Reference: US11613527B2, “Enzyme inhibitors” (KalVista Pharmaceuticals Limited, priority 2019, dated 2023)
